The text below walks through data of a melting point compilation (Tetko et al.; mined from patent text by program, amines drawn as free bases though some values may be those of a salt).

As a reminder, the melting point is the temperature of the solid-liquid transition. The molecule `COC(=O)c1ccc(N=C(Nc2ccc(C(=O)OC)cc2)c2ccccc2)cc1` came in with a melting point of 180 to 182 °C. The value for `OC(CCl)CNc1nc2ccnc(-c3cccc(C(F)(F)F)c3)n2n1` (stereo unspecified) was 141 to 142 °C; that for `CC(=O)N=c1sccn1CC(=O)c1cccc(NC(C)=O)c1` was 224 to 226 °C. With `CCOC(=O)C(=CN(C)c1cnsn1)C(=O)c1cc(F)c(Cl)nc1Cl` the figure was 108 to 110 °C. `CS(=O)(=O)c1ccc(C(CC2CCCC2)C(=O)Nc2nc3ccccc3s2)cc1C#N` (stereo unspecified) registered a melting point of 115 to 118 °C. With `COC(=O)COc1cccc2c1cc(C)n2Cc1cccc(-c2ccccc2)c1` the figure was 99 to 102 °C.

Turning to `CCCOc1ccc(-c2scc(-c3ccccc3Cl)c2CC(=O)NC(=N)n2cccn2)cc1`, the melting point is 119 to 120 °C. The value for `Cc1cc(-n2ccnc2)c2cccc(OCc3c(Cl)ccc(S(=O)(=O)N4CCC[C@H]4C(=O)NCC4CCN(Cc5ccccn5)CC4)c3Cl)c2n1` was 100 °C. The value for `O=C(c1cc2ccnc(Cl)c2[nH]1)N1CCSCC1` was 62 to 72 °C; that for `CC1(c2ccc(C#N)cc2)Cc2cc(O)c(Cl)c(Cl)c2C1=O` (stereo unspecified) was 189 to 196 °C; that for `CCc1nc(-c2ccco2)c2ncn(Cc3ccc(OC)cc3)c2n1` was 119 to 120 °C. The value for `COC(=O)c1cccc(-c2nc(=O)c3ccccc3s2)c1` was 164 °C. Consider `O=C(O)CC1(c2ccc(Cl)c(Cl)c2)CCC(=O)NC1=O` (stereo unspecified), for which the melting point was determined as 203 °C. `Cc1nc2ccccn2c(=O)c1CCN1CCC(C(=O)c2ccc(F)cc2)CC1` gave a melting point of 139 °C.

`CC(=O)Nc1ccc2c(c1)COCO2` showed a melting point of 133 to 134 °C.

With `CCC(c1oc2ccccc2c(=O)c1-c1ccccc1)n1cnc2c(N)ncnc21` (stereo unspecified), the melting point was in the range of 223 to 225 °C. With `CC(O)c1ccc(Cc2cn(-c3ccc(F)cc3)c3ncccc3c2=O)cc1` (stereo unspecified) the figure was 197 to 198 °C. The value for `CS(=O)(=O)c1ccc(-c2cc(-n3ccc(C(F)(F)F)n3)c3ccccc3n2)cc1` was 194 to 196 °C; that for `NC(=O)c1cc(F)c(F)c(Cl)c1Cl` was 153 to 155 °C. With `C[Si](C)(C)C#Cc1cn(-c2c(Cl)cc(C(F)(F)F)cc2Cl)nc1C(F)(F)F` the figure was 105 to 108 °C.

In turn, `NC(C(=O)O)c1ccc(C(=O)O)cc1F` (stereo unspecified) came in with a melting point of 250 to 255 °C.

As to `COCCOc1cc(Cc2cnc(N)nc2N)cc2c1NCCC2`, the melting point lay within 149 to 151 °C.

As to `Cc1ccc2c(c1)C1CN(CCO)CCC1N2` (stereo unspecified), the melting point fell in the range of 182 to 185 °C. With `CCC(=O)Nc1c(C#N)cnn1-c1ccc(OC(F)(F)F)cc1Cl` the figure was 127 °C; with `CC(=O)Nc1ccc(CSc2ccc(CC(=O)O)cc2)c(C(=O)O)c1`, 205 to 207 °C; with `CCCc1nn2ncc(C(=O)O)c2n1Cc1ccc(-c2ccccc2-c2nc(=O)o[nH]2)cc1`, 223 to 225 °C. The value for `COc1ccccc1N1CCN(CCCCN(C(N)=O)C(C)(C)C)CC1` was 167 to 169 °C; that for `Cc1noc(C)c1S(=O)(=O)n1nnc2cc3c(cc21)OC(F)(F)O3` was 120 to 123 °C; that for `Cc1cc(C)nc(Oc2ccnc3cc(Cl)ccc23)n1` was 104 to 105 °C. `COC(=O)C=CC(C)C1=CCC2C3CC=C4CC(OC(C)=O)CCC4(C)C3CCC12C` (stereo unspecified) showed a melting point of 121 to 122 °C. The value for `COC(=O)[C@H](CC(C)C)NC(=O)[C@@H](CCSC)NC(=O)OC(C)(C)C` was 61 to 64 °C; that for `Cc1cc2nc(C)c(CCCl)c(=O)n2o1` was 165 °C; that for `CN[C@H]1CCN(c2c(-c3ccccc3)c(C)c(C#N)c3nc(C(=O)N(C)C)oc23)C1` was 148 to 151 °C. With `O=[N+]([O-])c1cccc(C(F)(F)F)c1NCC(O)CO` (stereo unspecified) the figure was 117 °C. The value for `COc1cc(C(=O)NS(=O)(=O)c2ccccc2Cl)ccc1Cc1c(Cl)n(C)c2ccc(CC3CCN(C)C3=O)cc12` (stereo unspecified) was 126 to 134 °C. On to `CCOC(=O)N(CC(=O)O)C(=O)c1c(Br)ccc2c(C(F)(F)F)c(OC)ccc12`, for which the melting point lay within 167 to 168 °C.

For the molecule `CC1CC(=O)NN=C1c1ccc2c(c1)N(C)C(=O)CO2` (stereo unspecified), the melting point lay in the range of 215 to 218 °C. The value for `Cc1cc(C2(C3CC3)CC(c3ccc(Cl)cc3)=NO2)ccc1NC(=O)c1cccc(I)c1C(=O)NC(C)C` (stereo unspecified) was 178 to 180 °C; that for `COCCNC(=O)c1cccc(-c2cccc3cc(Cc4cc(F)ccc4F)sc23)c1` was 92 to 94 °C. With `Cc1cc2ncc(Nc3ccc(Br)cc3)nc2cc1C` the figure was 235 °C; with `COc1ccc(C(=O)N2CCCC2=O)cc1O`, 123 to 125 °C; with `COC(=O)c1c(-c2cc3ccccc3o2)ccc2ccccc12`, 111 to 112 °C. The value for `CC(=O)c1ccc(NS(C)(=O)=O)c(Oc2ccccc2)c1` was 113 to 114 °C; that for `CN(C)CCSc1ncccc1C(O)c1ccccc1` (stereo unspecified) was 88 to 89 °C; that for `COc1ccc(-c2ccncc2)cc1-c1ccc2nonc2c1` was 187 to 192 °C. The molecule `COC(=O)N(c1ccccn1)C(C(=O)NC(Cc1ccccc1)C(O)CN1C2CCC(C2)N1C(=O)OC(C)(C)C)C(C)C` (mixture of isomers) returned a melting point of 73 to 77 °C.

Molecule `O=c1[nH]c2ncc(-c3cnc4[nH]cnc4c3)nc2n1CC1CCOCC1` yielded a melting point of 367 to 370 °C. Molecule `COC(=O)C1=CC(=O)CCC1c1cccs1` (racemic) yielded a melting point of 69 °C. With `O=C1NC(=O)c2cc(Nc3ccc(O)c(O)c3)c(Nc3ccccc3)cc21` the figure was 204 to 205 °C. With `O=C(O)COc1ccc(-c2c3ccccc3cc3sc4ccccc4c23)cc1` the figure was 221 to 223 °C; with `O=C(NCN1CCCCC1)Nc1ccc(-c2cnc(CSCCOc3ccccc3)o2)cc1`, 84 to 87 °C.

In turn, `Cn1cnc(COc2nn3c(-c4ccccc4F)nnc3cc2-c2ccsc2)n1` displayed a melting point of 216 to 218 °C. With `CC(=O)N(C)Nc1ccnc2c(NC(=O)c3c(Cl)cccc3Cl)cccc12` the figure was 215 °C; with `Cc1cccc2[nH]c3c4c(Cl)cccc4nc-3cc12`, 170 to 172 °C; with `O=c1c2[nH]nnc2nc2sc(CCc3ccccc3)nn12`, 295 to 296 °C. With `CS(=O)(=O)c1ccc(-c2cccn2-c2ccc(F)cc2)cc1` the figure was 145 to 147 °C; with `O=C(Nc1cn2nc(Sc3nnc4ccccn34)ccc2n1)C1CC1`, 193 to 195 °C. With `CC(C)(C)OC(=O)CC1(C(=O)OCc2ccccc2)C(=O)N(Cc2ccc(Cl)c(Cl)c2)C(=O)c2cccn21` (stereo unspecified) the figure was 86 to 88 °C; with `Cc1cc([N+](=O)[O-])c(Cl)c([N+](=O)[O-])c1CBr`, 115 to 120 °C.

Molecule `CS(=O)(=O)NC(=O)C1(CCCCCCCCCCCCC2(C(=O)NS(C)(=O)=O)CC2)CC1` came in with a melting point of 148 °C.

Turning to `Nc1ccn(-c2ccc(Br)cc2)n1`, the melting point is 122 to 123 °C. The value for `COc1ccc(-n2nc(N(C)C)cc2-c2ccc(OCCO)cc2)cc1` was 120 to 122 °C. The value for `COc1ccc2ccccc2c1-c1cc2c(c(-c3ccccc3)c1P(=O)(c1ccccc1)c1ccccc1)COC2` was 129 to 131 °C. `CC(=O)Nc1ccc(-c2cccc(C3=NCC(C)(C)c4ccc5c(c43)CC(C)(C)O5)c2)cc1` showed a melting point of 246 to 249 °C. With `COc1ccc(-c2cc(=O)n(C(C)C)nc2-c2ccc(OC)cc2)cc1` the figure was 128 to 129 °C; with `Oc1ccc(-c2n[nH]c3ncnc(Nc4cccc(Cl)c4)c23)cc1`, above 220 °C; with `Cn1c(C(F)(F)F)cc(=O)n(-c2c(F)cc(Cl)c3c2OC(C)(C)C3=O)c1=O`, 160 to 162 °C. The value for `CNC(=O)C=C(c1ccc(C#N)cc1)n1ccnc1` was 172 to 180 °C. The value for `CCNC(=O)Nc1nc2nc(NCCN(CC)CC)ncc2cc1-c1c(Cl)cccc1Cl` was 86.5 to 89.5 °C; that for `Cc1cc(C)n(-c2nc(Nc3cccc(Cl)c3)c3ccccc3n2)n1` was 259 to 262 °C. `CC(C)(C)c1ccc(C(=O)n2c3c(c4ccccc42)CC(C(=O)O)CC3)cc1` (stereo unspecified) yielded a melting point of 174 to 175 °C. With `Nc1ncnc2c1c(-c1ccc3cn[nH]c3c1)nn2Cc1oc2ccccc2c(=O)c1-c1ccccc1` the figure was 140 to 143 °C; with `O=C(CCCN1CCC2(CC(O)c3cc(Cl)cc(Cl)c32)C1)c1ccc(F)cc1` (stereo unspecified), 149 to 152 °C; with `COc1ccc(C(=O)COc2ccccc2Br)cc1`, 104 °C. With `CCCNC(=O)N1CCc2cc(S(=O)(=O)N3CC(c4ccccc4)NC3=O)ccc21` (stereo unspecified) the figure was 197 to 199 °C; with `CCOC(C(=O)O)N1CCN2c3ccccc3Cc3ccccc3C2C1` (stereo unspecified), 105 to 108 °C.

`CCc1ccc2c(O)c(C(=O)O)cnc2c1`: the melting point fell in the range of 175 to 178 °C. The value for `CC(c1cc2ccccc2s1)N(OC(=O)OC(C)(C)C)C(N)=O` (stereo unspecified) was 120 to 122 °C; that for `FC(F)(F)c1[nH]c(-c2cccc(Cl)c2)nc1Br` was 137 to 144 °C; that for `CCCCc1nc(Cl)c(CC(=O)O)n1Cc1ccc(OCc2ccccc2C(=O)O)cc1` was 170 to 172 °C. The value for `O=C(CBr)C1=NO[C@@H](c2ccccc2)C1` was 31 to 33 °C; that for `COc1cccc(CNC(=O)c2nc3scc(NC(=O)Cc4ccc(C(=O)O)cc4)c3c(=O)[nH]2)c1` was 218 to 219 °C; that for `O=Cc1c2ccccc2c(CO)c2ccccc12` was 182 to 184 °C. With `Cc1c(N2C[C@@H]3CCCN[C@@H]3C2)c(F)cc2c(=O)c(C(=O)O)cn([C@@H]3C[C@@H]3F)c12` the figure was 244 to 245 °C; with `Cc1cc(-c2ccccc2)nn1C(C)C(=O)N(C)C` (stereo unspecified), 98 to 99 °C; with `Fc1cccc2c(NCCc3ccc4ccccc4c3)ccnc12`, 173 to 174 °C.
